{"source": "PubChem BioAssay AID2060623", "about": "(Molecular Pharmacology Branch, DTP, NCI, 2025)", "tested_on": "227483-062-R1-J1-PDC complex spheroids with HUVEC/MSC, viability", "assay": "Anticancer human tumor 227483-062-R1-J1-PDC patient-derived pancreatic carcinoma cell line growth inhibition [CLK]", "settings": "for viability, T/C: stronger effect = lower value", "from_the_text": "A high-throughput screen of multi-cell type tumor spheroids was designed to identify active combinations of […] and targeted small molecules. Complex spheroids include a stromal component modeled by human endothelial cells (HUVEC) and fibroblasts modeled by human mesenchymal stem cells (MSCs). The concentration ranges selected for each drug and investigational agent were based upon clinically achievable concentrations if the clinical Cmax of the agent was known.\nCompounds. The drugs and investigational agents: cirtuvivint (SM08502; NSC835563), CC-671 (NSC850746), vemurafenib (NSC761431), tapotoclax (NSC804041), sotorasib (NSC818433), adagrasib (NSC831453), MRTX-1133 (NSC836407), BAY2416964 (NSC825713), copanlisib (NSC816437), inavolisib (NSC800729), abemaciclib (NSC768073), osimertinib (NSC779217), entinostat (NSC756642), eltanexor (KPT-8602, NSC794443), venetoclax (NSC766270), ceralasertib (NSC777638), bortezomib (NSC756655), olaparib (NSC753686), talazoparib (NSC767125), alisertib (NSC759677), peposertib (NSC802822), gemcitabine (NSC613327), 5-fluorouracil (NSC19893), SN-38 (NSC673596), oxaliplatin (NSC266046), paclitaxel (NSC125973), and doxorubicin (NSC123127), were obtained from the National Cancer Institute (NCI) Developmental Therapeutics Program Chemical Repository. The FDA-approved anticancer drug set is available from the Developmental Therapeutics Program at https://dtp.cancer.gov/organization/dscb/obtaining/available plates.htm. […] The stock solutions were prepared in dimethyl sulfoxide (DMSO, Sigma-Aldrich, St. Louis, MO, cat. D2650), except for the platinum complexes which were prepared in saline (Quality Biological, Gaithersburg, MD, cat. 114-055-101), at 800-fold the tested concentration and stored at -70 degrees C prior to their use. All drugs and investigational agents were tested over a range starting from a high concentration at or near the clinical Cmax and decreasing in half-log increments. If the clinical Cmax for an agent had not been determined, the highest concentration tested was 10 microM.\nCell Culture. All cells were maintained in an incubator at 37 degrees C and 5% CO2 with 95% humidity. The PDC lines were cultured according to standard operating procedures established by the NCI PDMR. Briefly, all PDCs were thawed and cultured in Matrigel-coated flasks prepared with a working solution of 1X Ham's F-12 nutrient mix, without supplementation (Invitrogen, Waltham, MA, cat. 11765054), 100 U/mL penicillin-streptomycin (Invitrogen, cat. 15140122), and 2.5% Matrigel (Corning Inc., Corning, NY, cat. 354248) for the first three passages. The 947758-054-R-J2-PDC line was cultured in 6B/Colon 1A media, which includes advanced DMEM/F-12 (Thermo Fisher Scientific, cat. 12634028), 10 mM HEPES (Thermo Fisher Scientific, cat. 15630080), 1X GlutaMAX supplement (Thermo Fisher Scientific, cat. 35050061), 0.1 mg/mL primocin (InvivoGen, cat. ant-pm-2), 10% defined fetal bovine serum, heat inactivated (HyClone Laboratories Inc., cat. SH30070.03HI), 1.25 mM N-Acetyl-L-cysteine (Sigma-Aldrich, cat. A9165), 10 mM nicotinamide (Sigma-Aldrich, cat. N0636), 1X B-27 supplement (Thermo Fisher Scientific, cat. 17504044), 1X N-2 supplement (Thermo Fisher Scientific, cat. 17502048), and 10 microM Y-27632 dihydrochloride (Tocris Bioscience, cat. 1254). The 876862-298-R-J1-PDC was cultured in 6E media, which includes all 6B/Colon 1A media components plus 50% L-WRN conditioned media (ATCC, cat. CRL-3276), 50 ng/mL recombinant human EGF recombinant protein (hEGF; Thermo Fisher Scientific, cat. PHG0311), 10 ng/mL recombinant human fibroblast growth factor 10 (hGFG-10; PeproTech, cat. 100-26), 1 ng/mL recombinant human fibroblast growth factor 2 (hFGF-2; PeproTech, cat. 100-18B), and 1 µM prostaglandin E2 (PGE2; Tocris, cat. 2296). The 227483-062-R1-J1-PDC line was cultured in Panc media, containing all 6E components except hFGF-2, with the addition of 500 nM SB-431542 (Selleckchem, cat. S1067) and 10 nM gastrin (Tocris, cat. 3006). […]", "note": "pIC50: −log10 of the molar value. “And” between values parts separate entries of the source, which are not always exact repeats. Equal entries are not always repeated.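 Further: spheroids exposed to compounds for seven days before readout.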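 Wherever viability, T/C is given: percent of DMSO vehicle control luminescence as 100% viability.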", "data": [{"smiles": "Nc1ccn(C2OC(CO)C(O)C2(F)F)c(=O)n1", "note": "(stereo not drawn)", "values": [{"measurement": "viability, T/C", "setting": "compound 0.0316 µM", "value": "83.5% and 62.6%"}, {"measurement": "viability, T/C", "setting": "compound 0.1 µM", "value": "43.6% and 29.8%"}, {"measurement": "viability, T/C", "setting": "compound 0.316 µM", "value": "33.7% and 28.5%"}, {"measurement": "viability, T/C", "setting": "compound 1 µM", "value": "37.7% and 30.3%"}, {"measurement": "viability, T/C", "setting": "compound 3.16 µM", "value": "35.4% and 25.7%"}, {"measurement": "viability, T/C", "setting": "compound 10 µM", "value": "23.9% and 20.4%"}, {"measurement": "pIC50", "setting": "curve of compound", "value": "7.08 and 7.31"}]}, {"smiles": "O=C(c1cc(Cc2n[nH]c(=O)c3ccccc23)ccc1F)N1CCN(C(=O)C2CC2)CC1", "values": [{"measurement": "viability, T/C", "setting": "compound 0.0316 µM", "value": "98% and 94.5%"}, {"measurement": "viability, T/C", "setting": "compound 0.1 µM", "value": "100% and 97.8%"}, {"measurement": "viability, T/C", "setting": "compound 0.316 µM", "value": "101% and 98.4%"}, {"measurement": "viability, T/C", "setting": "compound 1 µM", "value": "107% and 99.2%"}, {"measurement": "viability, T/C", "setting": "compound 3.16 µM", "value": "114% and 91.3%"}, {"measurement": "viability, T/C", "setting": "compound 10 µM", "value": "91.4% and 100%"}, {"measurement": "pIC50", "setting": "curve of compound", "value": "< 5.00"}]}, {"smiles": "O=c1[nH]cc(F)c(=O)[nH]1", "values": [{"measurement": "viability, T/C", "setting": "compound 0.0316 µM", "value": "103% and 83.9%"}, {"measurement": "viability, T/C", "setting": "compound 0.1 µM", "value": "94.2% and 84.8%"}, {"measurement": "viability, T/C", "setting": "compound 0.316 µM", "value": "97% and 96.9%"}, {"measurement": "viability, T/C", "setting": "compound 1 µM", "value": 57, "unit": "%"}, {"measurement": "viability, T/C", "setting": "compound 3.16 µM", "value": "44.8% and 48%"}, {"measurement": "viability, T/C", "setting": "compound 10 µM", "value": "35.4% and 35.5%"}, {"measurement": "pIC50", "setting": "curve of compound", "value": "5.78 and 5.77"}]}, {"smiles": "CCCS(=O)(=O)Nc1ccc(F)c(C(=O)c2c[nH]c3ncc(-c4ccc(Cl)cc4)cc23)c1F", "note": "+ CN1CCN(c2cc(C(=O)Nc3cc4cc(-c5cnn(C)c5)ccc4cn3)ccn2)CC1", "values": [{"measurement": "pIC50", "setting": "curve of first compound, second compound 0.0316 µM", "value": "< 5.00"}, {"measurement": "pIC50", "setting": "curve of first compound, second compound 0.1 µM", "value": 5.28}, {"measurement": "pIC50", "setting": "curve of first compound, second compound 0.316 µM", "value": "> 7.50"}, {"measurement": "pIC50", "setting": "curve of first compound, second compound 1 µM", "value": "> 7.50"}, {"measurement": "pIC50", "setting": "curve of first compound, second compound 3.16 µM", "value": "> 7.50"}, {"measurement": "pIC50", "setting": "curve of first compound, second compound 10 µM", "value": "> 7.50"}, {"measurement": "viability, T/C", "setting": "second compound 0.0316 µM, first compound 0.0316 µM", "value": 115, "unit": "%"}, {"measurement": "viability, T/C", "setting": "second compound 0.0316 µM, first compound 0.1 µM", "value": 98, "unit": "%"}, {"measurement": "viability, T/C", "setting": "second compound 0.0316 µM, first compound 0.316 µM", "value": 92.6, "unit": "%"}, {"measurement": "viability, T/C", "setting": "second compound 0.0316 µM, first compound 1 µM", "value": 111, "unit": "%"}, {"measurement": "viability, T/C", "setting": "second compound 0.0316 µM, first compound 3.16 µM", "value": 113, "unit": "%"}, {"measurement": "viability, T/C", "setting": "second compound 0.0316 µM, first compound 10 µM", "value": 98.8, "unit": "%"}, {"measurement": "viability, T/C", "setting": "second compound 0.1 µM, first compound 0.0316 µM", "value": 59.5, "unit": "%"}, {"measurement": "viability, T/C", "setting": "second compound 0.1 µM, first compound 0.1 µM", "value": 63.6, "unit": "%"}, {"measurement": "viability, T/C", "setting": "second compound 0.1 µM, first compound 0.316 µM", "value": 62.2, "unit": "%"}, {"measurement": "viability, T/C", "setting": "second compound 0.1 µM, first compound 1 µM", "value": 95.5, "unit": "%"}, {"measurement": "viability, T/C", "setting": "second compound 0.1 µM, first compound 3.16 µM", "value": 57.5, "unit": "%"}, {"measurement": "viability, T/C", "setting": "second compound 0.1 µM, first compound 10 µM", "value": 32.8, "unit": "%"}, {"measurement": "viability, T/C", "setting": "second compound 0.316 µM, first compound 0.0316 µM", "value": 5.7, "unit": "%"}, {"measurement": "viability, T/C", "setting": "second compound 0.316 µM, first compound 0.1 µM", "value": 6.53, "unit": "%"}, {"measurement": "viability, T/C", "setting": "second compound 0.316 µM, first compound 0.316 µM", "value": 5.51, "unit": "%"}, {"measurement": "viability, T/C", "setting": "second compound 0.316 µM, first compound 1 µM", "value": 4.08, "unit": "%"}, {"measurement": "viability, T/C", "setting": "second compound 0.316 µM, first compound 3.16 µM", "value": 8.45, "unit": "%"}, {"measurement": "viability, T/C", "setting": "second compound 0.316 µM, first compound 10 µM", "value": 5.43, "unit": "%"}, {"measurement": "viability, T/C", "setting": "second compound 1 µM, first compound 0.0316 µM", "value": 4.51, "unit": "%"}, {"measurement": "viability, T/C", "setting": "second compound 1 µM, first compound 0.1 µM", "value": 1.83, "unit": "%"}, {"measurement": "viability, T/C", "setting": "second compound 1 µM, first compound 0.316 µM", "value": 3.28, "unit": "%"}, {"measurement": "viability, T/C", "setting": "second compound 1 µM, first compound 1 µM", "value": 1.8, "unit": "%"}, {"measurement": "viability, T/C", "setting": "second compound 1 µM, first compound 3.16 µM", "value": 2.28, "unit": "%"}, {"measurement": "viability, T/C", "setting": "second compound 1 µM, first compound 10 µM", "value": 2.25, "unit": "%"}, {"measurement": "viability, T/C", "setting": "second compound 3.16 µM, first compound 0.0316 µM", "value": 3.73, "unit": "%"}, {"measurement": "viability, T/C", "setting": "second compound 3.16 µM, first compound 0.1 µM", "value": 4.36, "unit": "%"}, {"measurement": "viability, T/C", "setting": "second compound 3.16 µM, first compound 0.316 µM", "value": 3.99, "unit": "%"}, {"measurement": "viability, T/C", "setting": "second compound 3.16 µM, first compound 1 µM", "value": 4.7, "unit": "%"}, {"measurement": "viability, T/C", "setting": "second compound 3.16 µM, first compound 3.16 µM", "value": 5.81, "unit": "%"}, {"measurement": "viability, T/C", "setting": "second compound 3.16 µM, first compound 10 µM", "value": 4.4, "unit": "%"}, {"measurement": "viability, T/C", "setting": "second compound 10 µM, first compound 0.0316 µM", "value": 4.02, "unit": "%"}, {"measurement": "viability, T/C", "setting": "second compound 10 µM, first compound 0.1 µM", "value": 2.72, "unit": "%"}, {"measurement": "viability, T/C", "setting": "second compound 10 µM, first compound 0.316 µM", "value": 2.7, "unit": "%"}, {"measurement": "viability, T/C", "setting": "second compound 10 µM, first compound 1 µM", "value": 3.39, "unit": "%"}, {"measurement": "viability, T/C", "setting": "second compound 10 µM, first compound 3.16 µM", "value": 3.28, "unit": "%"}, {"measurement": "viability, T/C", "setting": "second compound 10 µM, first compound 10 µM", "value": 2.76, "unit": "%"}]}]}
